Measured values published in paper PMC8480759, “Inhibitors of histone deacetylase 6 based on a novel 3-hydroxy-isoxazole zinc binding group” (Journal of Enzyme Inhibition and Medicinal Chemistry, 2021).

What was measured:
HDAC6 [1] = tested on: HDAC6; parameters: method as in ChEMBL (accessed on May 29th, 2020); details: ChEMBL ligands most similar to compound 13; ref ChEMBL (accessed on May 29th, 2020); cited from earlier work
HDAC6 [2] = target: T1, HDAC6 (Homo sapiens, UniProt Q9UBN7); assay: In vitro HDAC6 fluorogenic enzymatic assay; assay type: biochemical; parameters: purchased BPS Bioscience #50076 (Fluorogenic Assay Kit); details: for IC50: recombinant human HDAC6, dose-response 300 µM to 135 nM; for HDAC6 activity at the highest tested concentration: 300 µM, remaining enzyme activity, called inactive
T1 sequence (Q9UBN7 1-1215): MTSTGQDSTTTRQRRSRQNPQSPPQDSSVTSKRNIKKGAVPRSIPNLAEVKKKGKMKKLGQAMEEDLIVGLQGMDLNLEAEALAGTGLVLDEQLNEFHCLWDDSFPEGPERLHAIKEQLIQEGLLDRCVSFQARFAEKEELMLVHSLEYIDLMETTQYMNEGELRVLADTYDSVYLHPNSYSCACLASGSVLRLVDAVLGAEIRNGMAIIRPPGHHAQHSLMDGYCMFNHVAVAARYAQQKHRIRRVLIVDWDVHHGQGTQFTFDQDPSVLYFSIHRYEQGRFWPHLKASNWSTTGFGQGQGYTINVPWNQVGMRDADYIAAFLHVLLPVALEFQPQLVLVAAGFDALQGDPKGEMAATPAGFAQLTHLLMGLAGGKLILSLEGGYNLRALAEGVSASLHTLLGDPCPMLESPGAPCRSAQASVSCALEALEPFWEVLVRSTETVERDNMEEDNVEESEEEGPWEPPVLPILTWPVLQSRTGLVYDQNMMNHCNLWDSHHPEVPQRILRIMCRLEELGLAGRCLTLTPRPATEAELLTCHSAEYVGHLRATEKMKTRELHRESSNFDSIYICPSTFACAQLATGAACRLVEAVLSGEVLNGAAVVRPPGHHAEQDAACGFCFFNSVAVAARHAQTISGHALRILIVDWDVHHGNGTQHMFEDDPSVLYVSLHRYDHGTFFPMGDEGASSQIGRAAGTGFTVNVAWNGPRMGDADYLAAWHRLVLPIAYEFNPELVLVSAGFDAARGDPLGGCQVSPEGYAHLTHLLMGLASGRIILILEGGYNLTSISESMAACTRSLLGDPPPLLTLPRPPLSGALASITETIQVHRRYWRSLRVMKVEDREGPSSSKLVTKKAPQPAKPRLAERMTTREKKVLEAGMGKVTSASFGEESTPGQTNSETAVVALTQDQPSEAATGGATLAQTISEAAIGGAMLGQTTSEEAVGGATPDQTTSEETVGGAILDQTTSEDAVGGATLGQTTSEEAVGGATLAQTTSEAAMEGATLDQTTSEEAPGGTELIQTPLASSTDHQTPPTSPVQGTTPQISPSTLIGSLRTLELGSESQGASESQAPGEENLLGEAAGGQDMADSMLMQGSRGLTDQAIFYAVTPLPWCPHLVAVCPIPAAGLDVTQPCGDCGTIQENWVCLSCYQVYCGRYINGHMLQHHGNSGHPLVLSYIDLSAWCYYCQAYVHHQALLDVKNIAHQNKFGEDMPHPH

[3] = Storage stability at solid state; assay type: physicochemical; details: room temperature and −20 °C
From the text: In a recent study, we described the effect of different linker chemotypes on the potency and selectivity of a series of HDACi carrying a hydroxamate ZBG[6]. […] Being constituted by a small heteroaromatic ring with hydrogen bond acceptor and donor atoms, we hypothesised that the 3-hydroxy-isoxazole moiety could satisfy the pharmacophore requirements necessary for the coordination of the catalytic zinc ion of HDAC6. Therefore, in this work we investigated a series of 3-hydroxy-isoxazole derivatives bearing different aromatic or heteroaromatic linkers and various cap groups.

HDAC6 [4] = target: T1, HDAC6; assay: HDAC6 assay with acetylated p53 peptide (residues 379–382, RHKKAc-AMC) as substrate; assay type: biochemical
[5] = tested on: acetylation levels of histone H3 (HDAC1 target) in DU145 cells; assay: Western blot of histone H3 acetylation in DU145 cells; assay type: cell-based, human; details: 24 h, 10 µM
Procedure: (§1) The results corroborate the inhibitory activity of 17, 23, 25 and 27 at concentrations lower than 10 µM. […] HDACs contribution to CRPC is known[20] and the possibility to arrest CRPC proliferation by acting on HDAC targets is expanding in the scientific literature[21]^,[22]. After administration of the selected compounds for 24 h at 10 µM concentration, the effect on the acetylation levels of histone H3 and α-tubulin (respectively, HDAC1 and HDAC6 targets) was investigated. […] Lastly, in the same cell line, the anti-proliferative effect was measured in dose and time dependent manner (Figure S4).
Figure S3. Western blotting analysis of the tested and reference compounds SAHA and Tubastatin A on acetylation levels of histone H3 and α-tubulin in DU145 cells. GAPDH and H4 were used as a loading control. Densitometric values were analyzed using ImageJ Software and are reported on the top of bands as the ratio between loading control and acetylated target.
(1 picture or pasted object on this page, not shown here) […]
1.4 Western blot analysis
The prostate cancer cell line DU145 (ATCC) was grown in RPMI medium (Euroclone, Milan, Italy) with 10% fetal bovine serum (Euroclone), 2 mM L-glutamine (Euroclone), and antibiotics (100 U/mL penicillin, […] streptomycin) (Euroclone). Cells were stimulated with drugs for […]
Total Protein Extraction and western blot
After the induction with the test compounds at the indicated times and concentrations, DU145 cells were then harvested, washed with phosphate-buffered saline (PBS) (Euroclone), and lysed for 15 min at 4 °C in lysis extraction buffer with protease and phosphatase inhibitors (50 mM Tris -HCl pH 8.0, 150 mM NaCl, 1% NP40, 10 mM sodium fluoride, 0.1 mM sodium orthovanadate, […] phenylmethylsulfonyl fluoride 58 (PMSF), 20 g/mL aprotinin, […] leupeptin, […] antipain, 10 mM p -nitrophenyl phosphate, […] pepstatin A and 20 nM okada ic acid). Cells were vortexed then centrifuged at 13000 rpm for 30 min at 4 °C. Bradford assay (Biorad, Italy) was used to quantify protein concentration. […] The immune complexes were first detected with horseradish peroxidase-conjugated species-specific secondary antiserum (Bio-Rad Laboratories, Milan, Italy), and then by an enhanced chemiluminescence reaction (Bio-Rad Laboratories, Milan, Italy). […]
were harvested and washed twice with cold 1× PBS and lysed in Triton extraction buffer (TEB; PBS containing 0.5% Triton X 100 (v/v), 2 mM PMSF, and 0.02% (w/v) NaN3) for 10 min on ice, with gentle stirring. […] The samples were then centrifuged at 2000 rpm for 10 min at 4 °C; the concentration of protein in the supernatant was determined […]
using a Bradford assay (Bio-Rad, CA, USA). […] Semi-quantitative analysis was performed using ImageJ software. […]

DU145 cells = assay: Anti-proliferative assay (MTT cell viability); assay type: cell-based, human; details: for effect on proliferation rate of DU145 cells: 50 µM, MTT, 24, 48, 72 h
Procedure: as §1
Figure S4. Cell viability assay (MTT) of the tested compounds in human prostate cancer cell lines (DU145). Cells were treated with 4 increasing concentrations (1, 5, 10, and 50 µM) of tested compounds, monitored at 24, 48, and 72 hours and tested with SAHA and Tubastatin A as reference compounds. Data are expressed as mean ± SEM. […]
1.5 Anti-proliferative assay
Cell viability was determined on DU145 cell line using Thiazolyl Blue Tetrazolium Bromide [3-(4,5-dimethylthiazol-2-yl)-2,5-diphenyltetrazolium bromide] (MTT; Sigma-Aldrich) assay after treatment with new compounds at indicated concentrations. A total of 2 × 10^4 cells/well were plated in a 96-well plate and treated, in duplicates, with new compounds at different concentrations for 24, 48, and 72 hours. Absorbance was read at a wavelength of 570 nm with a TECAN M-200 reader (Tecan, Männedorf, Switzerland).

Structure (SMILES) | IC50 (HDAC6 [1]) | IC50 (HDAC6 [2]) | further results
O=C(NO)C1=CCCCC1 [CHEMBL2333344] | 0.012 µM | – | –
Oc1cc(-c2cccc(Br)c2)on1 [Compound 22] | – | 73.3 µM | –
Oc1cc(-c2ccc(Br)cn2)on1 [Compound 28] | – | 82.3 µM | –
Oc1cc(-c2ccco2)on1 [Compound 26] | – | > 100 µM | –
Oc1cc(-c2ccc3ccccc3c2)on1 [Compound 19] | – | > 300 µM | HDAC6 activity at the highest tested concentration (HDAC6 [2]): more than 55%
O=c1cc(-c2ccccc2)o[nH]1 [Compound 13, 3-hydroxy-5-phenyl-isoxazole] | – | 98.1 µM | stability on storage [3]: stable
Oc1cc(-c2ccc(Br)o2)on1 [Compound 21] | – | 29.6 µM | –
Oc1cc(-c2ccc(OCc3ccc(Cl)c(Cl)c3)cc2)on1 [Compound 27] | – | 8.2 µM | concentration showing inhibitory activity on HDAC6 (HDAC6 [4]): below 10 µM; effect on acetylation levels of histone H3 [5]: no effect; effect on proliferation rate of DU145 cells (DU145 cells): reduced the proliferation rate; anti-proliferative activity at the lowest concentrations (DU145 cells; DU145, late phases, lowest concentrations (tested 1, 5, 10, 50 µM)): exerted anti-proliferative activity
O=C(NO)c1ccccc1 [CHEMBL16300] | 0.115 µM | – | –
Cc1cccc(C(=O)NO)c1 [CHEMBL2381522] | 0.65 µM | – | –
O=C(NO)C1CCCCC1 [CHEMBL2333345] | 0.376 µM | – | –
Oc1cc(-c2cccc3ccccc23)on1 [Compound 20] | – | > 300 µM | HDAC6 activity at the highest tested concentration (HDAC6 [2]): more than 55%
Oc1cc(-c2ccc(OCc3ccccc3)cc2)on1 [Compound 17] | – | 1.3 µM | concentration showing inhibitory activity on HDAC6 (HDAC6 [4]): below 10 µM; effect on acetylation levels of histone H3 [5]: no effect; effect on proliferation rate of DU145 cells (DU145 cells): reduced the proliferation rate
CNC(=O)c1ccc(C(=O)NO)cc1 [CHEMBL2333343] | 0.028 µM | – | –
Cc1ccc(-c2cc(O)no2)s1 [Compound 24] | – | 21.9 µM | –
O=C(C#Cc1ccccc1)NO [Compound 12, N-hydroxy-3-phenyl-propiolamide] | – | – | stability on storage [3]: converted into 13 over time; melting point: 174 to 176 °C
O=C(O)c1cc(-c2ccccc2)on1 [Compound 29, 5-phenylisoxazole-3-carboxylic acid] | – | > 300 µM | HDAC6 activity at the highest tested concentration (HDAC6 [2]): more than 55%; HDAC6 inhibition (in words) (HDAC6 [2]; in vitro assays, Table 1): inactive
O=C(NO)C1=CCCC1 [CHEMBL2333346] | 0.03 µM | – | –
O=[N+]([O-])c1ccc(-c2cc(O)no2)cc1 [Compound 18] | – | 16.4 µM | –
COc1ccc(-c2cc(O)no2)cc1 [Compound 16] | – | > 300 µM | –
Oc1cc(-c2cccc(C(F)(F)F)c2)on1 [Compound 14] | – | > 300 µM | –
CNc1ccc(C(=O)NO)cc1 [CHEMBL3415449] | 1.77 µM | – | –
Oc1cc(-c2ccccc2Cl)on1 [Compound 15] | – | > 300 µM | –
